Source: patent US11155668B2, “Contact-killing, QAC functionalized thermoplastic polyurethane for catheter applications” (THE UNIVERSITY OF AKRON, priority 2017, dated 2021)

Tests used:
P. aeruginosa = test: 48 h biofilm formation assay in catheter tubing; assay type: cell-based, Pseudomonas aeruginosa (ATCC 27853)
Protocol: For post-fabrication functionalization of the inner lumen of allyl-TPU catheter tubing with Qx-SH reagents, 0.5 mL of an Ar purged solution containing Qx-SH (10.0 mM) and LAP (5.0 mM) was flowed through 25.0 cm segments of catheter tubing every 7.5 min for the duration of a 30 min pre-soak and 30 min UV treatment (or absence of UV for phys. ads. control). Following treatment, the catheter tubes were rinsed continuously for 30 s with DI water (3×), then rinsed continuously for 30 s with 10% EtOH (3×). All samples were blown dry with N2 and placed under vacuum for 24 h before X-ray photoelectron spectroscopy (XPS) analysis or ethylene oxide (EtO) sterilization.
(§1) For antimicrobial testing, blade-coated samples and catheter tubing of allyl-TPU were sterilized by EtO sterilization using an Anprolene benchtop sterilizer (Anderson Products, Inc., Haw River, N.C.) following the manufacturer's protocol to deliver approximately 0.5 cc·L^−1 of EtO gas over a 12 h sterilization cycle at 35% humidity and room temperature, followed by a 48 h purge under vacuum. The bacterial strains used in this study included Staphylococcus epidermidis (ATCC 12228), Staphylococcus aureus (25923), Escherichia coli (ATCC 25922), Pseudomonas aeruginosa (ATCC 27853), Enterococcus faecalis (ATCC 29212), and methicillin-resistant Staphylococcus aureus (MRSA) (ATCC BAA-41).
Biofilm formation was analyzed using overnight cultures of P. aeruginosa grown in TSB and adjusted to an OD600=0.10. An assembly of catheter tubing was prepared using aseptic techniques, and included COOK™ BEACON™ TIP TORCON NB™ Advantage catheter segments (25.0 cm in length) denoted as “CC” and numbered 1-4 from upstream (1) to downstream (4). The catheter assembly was connected using 18 gauge blunt tip stainless steel needles (˜25 mm in length) sterilized in 100% EtOH. CC segments were located before, after, and in between the untreated, phys. ads., and UV-treated allyl-TPU catheter segments modified with Q8-SH to account for any downstream influence of the experimental catheters. With a peristaltic pump flowing at 1.5 mL·min^−1, fresh bacterial inoculum was continuously streamed through the catheter assembly for 2 h, followed by FAB medium (0.10 mM CaCl2, 0.01 mM Fe-EDTA, 0.15 mM (NH4)2SO4, 0.33 mM Na2HPO4, 0.20 mM KH2PO4, 0.50 mM NaCl, 0.50% (wt/vol) casamino acids, 1.0 mM MgCl2, and 10 mM sodium citrate) for 48 h. Samples were fixed with 50 mL of a 4% paraformaldehyde solution, rinsed with 200 mL of PBS, and submerged in PBS for further testing.
Photographs of the catheter tubing were taken using a camera with a 16-megapixel Sony Exmor RS IMX240 sensor and […] lens. Catheter cross-sections were cut (ca. 2.5 mm in length) from each catheter segment, rinsed thoroughly with DI water, and lyophilized for 24 h for scanning electron microscopy (SEM) analysis. SEM was performed on gold sputter-coated samples using a JEOL-7401 Field Emission Scanning Electron Microscope (JEOL USA, Inc., Peabody, Mass.) at an accelerating voltage of 2.0 kV under 45× and 300× magnification. In addition, lyophilized cross-sections (3.0 mm in length) from randomly selected locations along each catheter segment were placed vertically on a glass slide and imaged under brightfield microscope at 4× magnification. Using Olympus VS-Desktop software, the % biofilm blockage was determined by measuring the inner luminal area of untreated catheters compared to the area of the biofilm on the interior of the contaminated catheters (Equation 1).
[formula] Results are reported as averages with standard deviations (n=3) for each catheter segment.

E. coli = test: Contact-killing assay (adapted from ISO 22196) on allyl-TPU blade-coated samples modified with Qx-SH; assay type: cell-based, Escherichia coli (ATCC 25922); details: for log reduction in E. coli compared to the negative control / reduction in E. coli compared to the negative control: 24 h contact-killing assay; for Mean CFU/Sample Recovered, E. coli: n = 2, negative control polypropylene 2.04 (±0.06) × 10^6
Protocol: To functionalize the allyl-TPU blade-coated samples with Qx-SH reagents, thiol-ene reactions were performed using the same procedure described for rhodamine-SH. Briefly, blade-coated films of allyl-TPU (250 μm thick, 2.0 cm diameter, ca. 110 mg, 20 μmol allyl) were submerged in 2 mL of an Ar purged (30 min) aqueous solution containing Qx-SH (10.0 mM) and LAP (5.0 mM), and allowed to pre-soak for 30 min under Ar. UV-treated samples were irradiated for 30 min (λ=365 nm, I=1.2 mW·cm^−2) while phys. ads. samples were kept in the absence of UV light for 30 min to control for any antimicrobial activity that is contributed by non-covalently attached QAC. Following treatment, the dye/photoinitiator solutions were drawn up and discarded, and the samples were rinsed with 5 mL of DI water (3×) then submerged in 5 mL of DI water. The samples were further rinsed with 10% EtOH (3×) and soaked in 10% EtOH for 15 min (3×), rinsing with 10% EtOH in between each soak.
as §1
The contact-killing assay was performed on physically adsorbed (phys. ads.), and UV-treated blade-coated samples modified with a series of Qx-SH reagents using a method adapted from ISO 22196. See, International Organization for Standardization. Measurement of antibacterial activity on plastics and other non porous surfaces (ISO 22196:2011), the disclosure of which is incorporated herein by reference in its entirety. Briefly, the samples were inoculated with same day cultures of select bacteria (e.g. E. coli, S. epidermidis) in dilute nutrient media (0.2% tryptic soy broth (TSB) in 1× phosphate buffered saline (PBS)) at approximately 150 colony-forming units (CFU)·mm^−2. Generally, 35 uL of 8.5×10^5 CFU/mL cultures were dispersed across the surface of the sample using sterile polypropylene cover films (area=198 mm^2). […] Following incubation, surviving cells were recovered from the samples using vigorous agitation (i.e. vortexing for 20 s in PBS). Surviving cells were enumerated via 10-fold series dilution and plating 100 μL onto tryptic soy agar (TSA), incubating overnight and then plate counting CFU. The mean CFU recovered per sample (CFU/sample) were calculated by accounting for dilutions. Internal controls samples of polypropylene and chlorhexidine treated with polypropylene were included in the assay.

[1] = UV-treated allyl-TPU catheter, 48 h
[2] = phys. ads. allyl-TPU catheter, 48 h

## CCCCCCCC[N+](C)(C)CCCCCCCCOC(=O)CCS.[Cl-] [Q8-SH]
P. aeruginosa; UV-treated allyl-TPU catheter tubing, brightfield microscopy and SEM
  biofilm formation compared to Cook catheter, untreated and phys. ads. controls (in words): more resistant to biofilm formation and less
P. aeruginosa; UV-treated allyl-TPU catheter, inner lumen modified, 48 h, n=3
  % biofilm blockage (internal volume occlusion): ca. 15%
P. aeruginosa; [1]
  reduction of biofilm blockage from CC1: 85%
  reduction of biofilm blockage from the untreated control: 69%
P. aeruginosa; [2]
  reduction of biofilm blockage from CC1: 77%
  reduction of biofilm blockage from the untreated control: 53%
E. coli; UV-treated samples
  log reduction in E. coli compared to the negative control: 6 log
  reduction in E. coli compared to the negative control: 99.9999%
  Mean CFU/Sample Recovered, E. coli: 0.00 ± 0.00 CFU/Sample
E. coli; phys. ads. samples
  log reduction in E. coli compared to the negative control: 6 log
  reduction in E. coli compared to the negative control: 99.9999%
  Mean CFU/Sample Recovered, E. coli: 0.00 ± 0.00 CFU/Sample
